# Literature values, collected in US20070148100A1 (priority 2005, published 2007).
# Tests used:
# [1] = system: histamine receptors
# [2] = target: T1, 5-HT1A receptor (Homo sapiens, UniProt P08908)
# T1 sequence (P08908 1-422): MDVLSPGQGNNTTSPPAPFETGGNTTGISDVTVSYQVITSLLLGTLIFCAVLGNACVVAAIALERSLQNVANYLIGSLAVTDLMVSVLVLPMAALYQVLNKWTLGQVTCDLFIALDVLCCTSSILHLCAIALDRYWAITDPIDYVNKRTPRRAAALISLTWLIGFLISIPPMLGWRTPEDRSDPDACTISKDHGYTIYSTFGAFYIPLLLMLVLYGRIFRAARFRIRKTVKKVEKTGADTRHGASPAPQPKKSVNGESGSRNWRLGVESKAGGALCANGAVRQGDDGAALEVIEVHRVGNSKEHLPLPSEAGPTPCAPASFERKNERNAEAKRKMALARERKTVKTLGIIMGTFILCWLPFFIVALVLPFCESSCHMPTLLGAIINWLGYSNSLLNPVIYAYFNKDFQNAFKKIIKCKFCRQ
# [3] = system: cholinergic muscarinic receptors
# [4] = target: 5-HT2A receptor (Homo sapiens, UniProt P28223)
# [5] = system: alpha-adrenergic receptors
# 5-HT2A receptor, sequence (P28223 whole entry): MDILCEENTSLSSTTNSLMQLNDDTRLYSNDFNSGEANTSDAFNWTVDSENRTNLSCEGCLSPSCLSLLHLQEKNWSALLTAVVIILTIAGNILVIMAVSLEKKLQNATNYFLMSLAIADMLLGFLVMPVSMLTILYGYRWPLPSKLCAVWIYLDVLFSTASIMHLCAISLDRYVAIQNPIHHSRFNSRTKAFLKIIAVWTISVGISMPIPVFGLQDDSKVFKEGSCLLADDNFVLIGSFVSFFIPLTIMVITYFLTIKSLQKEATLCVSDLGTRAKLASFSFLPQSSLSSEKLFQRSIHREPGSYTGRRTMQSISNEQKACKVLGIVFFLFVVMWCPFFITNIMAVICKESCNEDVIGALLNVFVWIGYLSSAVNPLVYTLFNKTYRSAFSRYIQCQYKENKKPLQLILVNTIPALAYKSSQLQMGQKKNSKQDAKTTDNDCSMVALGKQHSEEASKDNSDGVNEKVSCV
smiles,measurement,setting,value
"O=C1CCc2ccc(OCCCCN3CCN(c4cccc(Cl)c4Cl)CC3)cc2N1 [Aripiprazole, 7-[4-[4-(2,3-dichlorophenyl)-1-piperazinyl]butoxy]-3,4-dihydrocarbostyril]",affinity for histamine receptors,[1],moderate affinity
same,activity at the 5-HT1A receptor,[2],partial agonist
same,affinity for cholinergic muscarinic receptors,[3],no appreciable affinity
same,activity at the 5-HT2A receptor,[4],antagonist profile
same,affinity for alpha-adrenergic receptors,[5],moderate affinity
same,elimination half-life,in vivo,approximately 75 hours
same,kinetics (linearity),in vivo,linear kinetics
same,bioavailability,oral tablets,about 90%
